# Experimental data reported in patent US20250381307A1, “RETRO-AAV AND USE IN TREATING NEURODEGENERATIVE DISEASES” (priority 2023, published 2025).
# Key:
# [1] = CSF concentration of DCZ by LC-MS; assay type: in vivo, macaques; details: 24 hours after drug infusion, 0.3 mg/kg i.m., FIG. 24D
# Text: One month of washout was allowed before administration of DCZ.
# [2] = target: T1, rM3Ds (Rattus norvegicus, UniProt P08483, A177S/A238G/A489L/DEL261-437/DEL441-478/E258S/I253V/I483M/INS256[…]/K178L/K182A/K255R/K484R/K486H/L173F/L482A/M480V/R171S/R176Q/R179M/S481M/T174R/T181R/T257A/Y148C); assay: In vivo electrophysiological recording in caudate/putamen of MPP+ lesioned macaques; set-up: rM3Ds; 2A-EYFP (C); host or cells: AAV8R12-transduced striatal D1-MSNs of mice and cynomolgus macaques (in vivo and acute slices)
# T1 sequence (P08483 with tags, fused parts or gaps Y148C/R171S/L173F/T174R/R176Q/A177S/K178L/R179M/T181R/K182A/A238G/I253V/K255R/INS256[…]/T257A/E258S/DEL261-437/DEL441-478/M480V/S481M/L482A/I483M/K484R/K486H/A489L): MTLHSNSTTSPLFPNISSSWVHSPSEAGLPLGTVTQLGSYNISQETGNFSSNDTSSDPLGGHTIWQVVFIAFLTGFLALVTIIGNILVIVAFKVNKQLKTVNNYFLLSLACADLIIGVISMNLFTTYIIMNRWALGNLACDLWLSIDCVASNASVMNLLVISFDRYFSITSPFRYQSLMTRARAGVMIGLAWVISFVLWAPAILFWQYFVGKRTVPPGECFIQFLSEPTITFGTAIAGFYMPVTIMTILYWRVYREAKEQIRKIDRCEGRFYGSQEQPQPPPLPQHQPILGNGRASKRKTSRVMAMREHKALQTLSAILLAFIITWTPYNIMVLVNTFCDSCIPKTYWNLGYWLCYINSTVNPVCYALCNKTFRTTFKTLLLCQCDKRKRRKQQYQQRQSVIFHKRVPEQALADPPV
# Protocol: Electrophysiological recording was performed through a recording chamber while the monkey was anesthetized. Neural responses were recorded by a 16-channel linear probe (Plexon Inc, Uprobe) driven by a mechanical microdrive (Alpha Omega, FlexMT). Signals were passed through a head stage (Plexon Inc, HST/16V-G20 LN) and then split and filtered between 300 Hz and 5 kHz to identify spiking activity with an amplifier system (Plexon Inc, OmniPlex). Detected spikes were then sorted by commercially available software (Plexon Inc, Offline Sorter) for further analysis. To quantify the effect of CNO/DCZ injection, neural activity was recorded for 60 minutes following CNO/DCZ injection. The response time-course for each channel was obtained by counting the spikes within every 10-minute window and then normalizing to the maximal.
# To determine the effect of CNO/DCZ injection on the direction of signal change, we performed Pearson correlation between neural responses and time using the ‘corr’ function in Matlab, which generates the correlation coefficient ‘r’ and significant level ‘p’. A neuron was considered to have “Increased” activity when r>0 and p<0.05; and considered to have “Decreased” activity when r<0 and p<0.05. Otherwise, neurons were considered to be “Unchanged” in their neural activities. The responses of all increased neurons were then averaged after being normalized by the maximal response (Crowe et al., 2014; Dai and Wang, 2018; Hirokawa et al., 2019) following CNO/DCZ injection, and then plotted as a function of time to generate the normalized population response.
# [3] = target: T1, rM3Ds
# Protocol: Monkeys were continuously monitored by veterinarians after lesion.
# Dyskinesia score criteria were: 0: Absent. 1: Mild, fleeting, present <30% of the observation period.
# Each block included ten continuous trials.
# Customized surface EMG electrodes were used for EMG recordings. […] The recording procedure was conducted immediately after DCZ infusions.
# [4] = Locomotion test in naive macaques without viral injection; assay type: in vivo; details: DCZ 0.3 mg/kg i.m., FIG. 35A-35G
# [5] = Blood test of liver- and kidney-related factors during DCZ treatment; assay type: in vivo, macaques; details: FIG. 36B-36F
# Text: FIG. 36A-36F depict effects of D1-MSN activation on dyskinesia-like behavior and health state-related blood factors in parkinsonian macaques. FIG. 36A illustrates quantitation of dyskinesia score at 2 months, 4 months, and 8 months after treatment with DCZ. n=3 monkeys per group.
structure (smiles),measurement,setting,value
"CN1CCN(C2=Nc3ccccc3Nc3ccccc32)CC1 [DCZ, deschloroclozapine]",DCZ levels in cerebrospinal fluid,[1],no detectable levels
same,caudate/putamen cells activated (FIG. 15G),"[2]; CNO 36 cells, DCZ 31 cells, saline 17.9%",41.9%
same,caudate/putamen cells inactivated (FIG. 15G),[2]; saline 33.4%,9.7%
same,caudate/putamen cells unchanged (FIG. 15G),[2]; saline 48.7%,48.4%
same,efficacy after extended prior L-Dopa administration,"[3]; 4 months prior L-Dopa, 1 month washout, FIG. 24F-24L",did not affect the efficacy of DCZ treatment or the absence of dyskinesia
same,alleviation of parkinsonian symptoms over long-term treatment,[3]; 8-month continuous treatment with DCZ,appeared to be consistent
same,motor skills,"[3]; DCZ, hand to mouth movement",a significant recovery of motor skills
same,alleviation of symptoms after each dose at steady-state efficacy,[3]; FIG. 24C,at least 24 hours
same,parkinsonian symptoms,"[3]; MPP+ macaques with AAV8R12-G88P7-rM3Ds-2A-EYFP, DCZ 0.3 mg/kg i.m., L-Dopa/benserazide 20/5 mg/kg/day oral",a reversal of canonical parkinsonian symptoms in all tested monkeys
same,tremor,"[3]; after DCZ treatment, EMG",great reduced or even eliminated
same,speed of reversal of symptoms,"[3]; initial phase of drug administration, FIG. 24B",faster reversal of symptoms than levodopa
same,dyskinesia,[3]; long-term treatment,dyskinesia-free
same,duration of effect (FIG. 18C),[3]; n=3 monkeys,over 24 hr
same,spontaneous movement in an observation cage,[3]; systemic DCZ,an increase in spontaneous movement
same,motor-related behaviors in naïve monkeys,[4],did not alter motor-related behaviors
same,"blood levels of common liver- and kidney-related factors (ALT, AST, GGT, CREA, BUN)",[5],remained stable
